Entries after “also recorded” stand apart in the source; their conditions may differ.
What was measured:
[1] = system: control RPS30-3′UTR reporter; assay: RPS30I-M1 EGFP reporter with control stable 3′UTR, post-transcriptional induction (FIG. 3); format: cell-based, human; details: HEK293 cells, okadaic acid 100 nM
Protocol: (§1) Selective for post-transcriptional regulation in the RPS30I-M linked-reporter system. HEK293 cells in 96-well plates were transfected with 150 ng of EGFP reporter vectors that are under the transcriptional control of the ribosomal protein RPS30I-M1. The EGFP reporter contains either control stable 3′UTR or 3′UTR which contain 200 bases of IL-8 3′UTR sequences known to contain mRNA destabilization elements, AU-rich elements. After approximately 20 hr, the cells were treated with the following compounds: okadaic acid (100 nM) or IL-α (3 ng/ml) to induce post-transcriptional induction, if any. High resolution images were obtained automatically by BD high-content imager. Quantitation was performed with our in-house ProXcell imaging algorithm.
The RPS30I-M1 with control 3′UTR, RPS30I-M1 with IL-8 3′UTR, and RPS30I-M1 with TNF-α 3′UTR vectors were tested for use to assess post-transcriptional regulation. Transfected cells were stimulated with the following compounds, IL-α or okadaic acid. Any compound or modulators such as protein, expression vector, or small inhibitory RNA, or any other RNA vector can be tested for the post-transcriptional effects, i.e., induction or repression.

[2] = system: EGFP reporter vectors under the transcriptional control of the ribosomal protein RPS30, RPS23I-M, or RPS30I-M1 sequences; assay: EGFP reporter under ribosomal protein promoters with control stable 3′UTR, treated with inducers (FIG. 1B); format: cell-based, human; details: HEK293 cells, okadaic acid 100 nM or TNF-α 10 ng/ml, added about 20 hr after transfection
Protocol: B HEK293 cells in 96-well plates were transfected with 150 ng of EGFP reporter vectors that are under the transcriptional control of the ribosomal protein RPS30, RPS23I-M, or RPS30I-M1 sequences. The EGFP reporter contains control stable 3′UTR. After approximately 20 hr, the cells were treated with the following compounds: okadaic acid (100 nM) or TNF-α (10 ng/ml) to induce post-transcriptional induction, if any. High resolution images were obtained automatically by BD high-content imager. Quantitation was performed with our in-house ProXcell imaging algorithm.

[3] = system: RPS30I-M1-IL-8 3′UTR reporter; assay: RPS30I-M1 EGFP reporter with IL-8 3′UTR (AU-rich elements), post-transcriptional induction (FIG. 3); format: cell-based, human; details: HEK293 cells, 3′UTR with 200 bases of IL-8 3′UTR; okadaic acid 100 nM
Protocol: as §1
The AU-rich regions, approximately 200 bases, of TNF-α and IL-8 3′UTR were cloned into the vector. Briefly, a 237 bp region (972-1209 nt: NM_000584, SEQ ID NO. 9) that belongs to the 1250 bp IL-8 3′UTR or 250 bases from TNF-α 3′UTR: (1200-1450 bp, NM_000594, SEQ ID NO. 10) were amplified by RT-PCR using specific primers that contains BamH1 and XbaI restriction sites. The PCR products were cut by BamH I and Xba I sequentially and followed by phenol extraction and ethanol precipitation. The purified cut PCR products were ligated into the EGFP expression vector that has bovine growth hormone 3′UTR that has BamH1 and XbaI sites. […]

[4] = system: EGFP reporter vector under the transcriptional control of the SV40 promoter; assay: EGFP reporter under SV40 promoter, treated with inducers (FIG. 2); format: cell-based; details: HEK293 cells, TNF-α 10 ng/ml
Protocol: (§2) HEK293 cells in 96-well plates were transfected with 150 ng of EGFP reporter vectors that are under the transcriptional control of the CMV or SV40 promoter. After approximately 20 hr, the cells were treated with the following compounds: okadaic acid (100 nM) or TNF-α (10 ng/ml) to induce post-transcriptional induction, High resolution images were obtained automatically by BD high-content imager. Quantitation was performed with ProXcell imaging algorithm.

[5] = system: EGFP reporter vector under the transcriptional control of the CMV promoter; assay: EGFP reporter under CMV promoter, treated with inducers (FIG. 2); format: cell-based; details: HEK293 cells, TNF-α 10 ng/ml
Protocol: as §2

Compound	post-transcriptional induction of EGFP reporter [1]	induction of EGFP reporter fluorescence [2]	induction of EGFP reporter fluorescence ([2]; listed as okdadaic acid)	post-transcriptional induction of EGFP reporter [3]	transcriptional induction of EGFP reporter [4]	transcriptional induction of EGFP reporter [5]
C=C1[C@@H](O)[C@@H]2O[C@]3(CC[C@H](/C=C/[C@@H](C)[C@@H]4CC(C)=C[C@@]5(O[C@H](C[C@@](C)(O)C(=O)O)CC[C@H]5O)O4)O3)CC[C@H]2O[C@@H]1[C@@H](O)C[C@H](C)[C@H]1O[C@@]2(CCCCO2)CC[C@H]1C [okadaic acid]	not	not transcriptionally inducible	no induction	significantly increases		
TNF-α		no induction; also recorded: not transcriptionally inducible			respond to transcriptional induction	respond to transcriptional induction

Source: US8795962B2, “Expression vectors based on modified ribosomal protein promoters and uses thereof in post-transcriptional assessment” (King Faisal Specialist Hospital and Research Center, priority 2008, dated 2014)
